PubChem BioAssay AID248 (DTP/NCI, 2004)
Values joined by “and” are separate entries in the source; they are usually repeats but may differ in a detail not shown here. Equal entries are not always repeated. Inconclusive results and toxic doses are left out. Rule as the data show it: active = T/C of 150% or more; inactive = T/C below 125%.

Tested on: L1210 leukemia ip in BDF1 mice, survival T/C
Assay: NCI In Vivo Anticancer Drug Screen. Data for tumor model L1210 Leukemia (intraperitoneal) in B6D2F1 (BDF1) mice
Conditions: endpoint: mean survival time, higher = longer survival
Method in brief: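 Read-out is survival time, reported as the treated-group measurement over the vehicle-control measurement.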

[1] = dose: 400.0 mg/kg/injection, schedule: Q04DX002 (ip), vehicle: saline with Tween-80
[2] = dose: 100.0 mg/kg/injection, schedule: Q04DX003 (ip), vehicle: saline with Tween-80
[3] = dose: 200.0 mg/kg/injection, schedule: Q04DX003 (ip), vehicle: saline with Tween-80
[4] = dose: 400.0 mg/kg/injection, schedule: Q04DX003 (ip), vehicle: saline with Tween-80
[5] = dose: 100.0 mg/kg/injection, schedule: Q01DX009 (ip), vehicle: saline
[6] = dose: 100.0 mg/kg/injection, schedule: Q04DX003 (ip), vehicle: saline
[7] = dose: 200.0 mg/kg/injection, schedule: Q01DX009 (ip), vehicle: saline
[8] = dose: 200.0 mg/kg/injection, schedule: Q04DX003 (ip), vehicle: saline
[9] = dose: 400.0 mg/kg/injection, schedule: Q01DX009 (ip), vehicle: saline
[10] = dose: 400.0 mg/kg/injection, schedule: Q04DX003 (ip), vehicle: saline
[11] = dose: 100.0 mg/kg/injection, schedule: Q01DX001 (ip), vehicle: saline
[12] = dose: 200.0 mg/kg/injection, schedule: Q01DX001 (ip), vehicle: saline
[13] = dose: 400.0 mg/kg/injection, schedule: Q01DX001 (ip), vehicle: saline
[14] = dose: 100.0 mg/kg/injection, schedule: Q01DX009 (ip), vehicle: Klucel (hydroxypropylcellulose) (HPC)
[15] = dose: 100.0 mg/kg/injection, schedule: Q01DX009 (ip), vehicle: saline with Tween-80
[16] = dose: 200.0 mg/kg/injection, schedule: Q01DX009 (ip), vehicle: saline with Tween-80
[17] = dose: 50.0 mg/kg/injection, schedule: Q01DX001 (ip), vehicle: saline

Measured: T/C

C[Si](C)(C)c1ccc(-c2ccccc2)cc1
inactive: dose: 25.6 mg/kg/injection, schedule: Q04DX002 (ip), vehicle: saline with Tween-80 90 % of control | dose: 64.0 mg/kg/injection, schedule: Q04DX002 (ip), vehicle: saline with Tween-80 90 % of control | dose: 160.0 mg/kg/injection, schedule: Q04DX002 (ip), vehicle: saline with Tween-80 97 % of control | [1] 101 % of control

O=S1(=O)C2CCCCCC2(N2CCOCC2)C1c1ccccc1 (configuration not stated)
inactive: dose: 100.0 mg/kg/injection, schedule: Q04DX002 (ip), vehicle: Klucel (hydroxypropylcellulose) (HPC) 101 % of control | dose: 200.0 mg/kg/injection, schedule: Q04DX002 (ip), vehicle: Klucel (hydroxypropylcellulose) (HPC) 97 % of control | dose: 400.0 mg/kg/injection, schedule: Q04DX002 (ip), vehicle: Klucel (hydroxypropylcellulose) (HPC) 93 % of control

CC(=O)Nc1cc(C(=O)O)cc(NC(C)=O)c1C
inactive: [2] 103 % of control | [3] 98 % of control | [4] 101 % of control

CCCCCCN1C(C)C1C(C)C (configuration not stated)
inactive: dose: 20.0 mg/kg/injection, schedule: Q01DX009 (ip), vehicle: saline 114 % of control | dose: 20.0 mg/kg/injection, schedule: Q04DX003 (ip), vehicle: Klucel (hydroxypropylcellulose) (HPC) 105 % of control | dose: 40.0 mg/kg/injection, schedule: Q01DX009 (ip), vehicle: saline 115 % of control | dose: 40.0 mg/kg/injection, schedule: Q04DX003 (ip), vehicle: Klucel (hydroxypropylcellulose) (HPC) 100 % of control | dose: 80.0 mg/kg/injection, schedule: Q01DX009 (ip), vehicle: saline 107 % of control | dose: 80.0 mg/kg/injection, schedule: Q04DX003 (ip), vehicle: Klucel (hydroxypropylcellulose) (HPC) 105 % of control

CCOC(=O)C[P+](c1cccc(OC)c1)(c1cccc(OC)c1)c1cccc(OC)c1
inactive: dose: 15.0 mg/kg/injection, schedule: Q01DX001 (ip), vehicle: carboxymethylcellulose (CMC) 90 % of control | dose: 30.0 mg/kg/injection, schedule: Q01DX001 (ip), vehicle: carboxymethylcellulose (CMC) 91 % of control

CCCC(=O)Nc1ccc(NS(C)(=O)=O)cc1OC
inactive: [5] 103 % of control | [6] 102 % of control | [7] 100 % of control | [8] 102 % of control | [9] 102 % of control | [10] 100 % of control

c1cc2[nH]c1C1(CCCC1)c1ccc([nH]1)C1(CCCC1)c1ccc([nH]1)C1(CCCC1)c1ccc([nH]1)C21CCCC1
inactive: [11] 102 % of control | [12] 103 % of control | [13] 94 % of control

OCC1OC(n2ccc3c2ncn2ccnc32)C(O)C1O (configuration not stated)
inactive: dose: 25.0 mg/kg/injection, schedule: Q01DX005 (ip), vehicle: saline 91 % of control | dose: 50.0 mg/kg/injection, schedule: Q01DX005 (ip), vehicle: saline 105 % of control | dose: 50.0 mg/kg/injection, schedule: Q01DX009 (ip), vehicle: saline 102 % of control | dose: 100.0 mg/kg/injection, schedule: Q01DX005 (ip), vehicle: saline 93 % of control | [5] 103 % of control

CCN(CC)CCNc1ncnc2c1cnn2-c1ccc(Cl)cc1
inactive: dose: 25.0 mg/kg/injection, schedule: Q01DX009 (ip), vehicle: Klucel (hydroxypropylcellulose) (HPC) 95 % of control | dose: 50.0 mg/kg/injection, schedule: Q01DX009 (ip), vehicle: Klucel (hydroxypropylcellulose) (HPC) 95 % of control | [14] 92 % of control | [15] 101 % of control | dose: 100.0 mg/kg/injection, schedule: Q04DX003 (ip), vehicle: Klucel (hydroxypropylcellulose) (HPC) 95 % of control | [2] 103 % of control | dose: 150.0 mg/kg/injection, schedule: Q01DX009 (ip), vehicle: Klucel (hydroxypropylcellulose) (HPC) 101 % of control | [16] 95 % of control | dose: 200.0 mg/kg/injection, schedule: Q04DX003 (ip), vehicle: Klucel (hydroxypropylcellulose) (HPC) 95 % of control | [3] 94 % of control | dose: 225.0 mg/kg/injection, schedule: Q01DX009 (ip), vehicle: Klucel (hydroxypropylcellulose) (HPC) 93 % of control | dose: 335.0 mg/kg/injection, schedule: Q01DX009 (ip), vehicle: Klucel (hydroxypropylcellulose) (HPC) 87 % of control | dose: 400.0 mg/kg/injection, schedule: Q04DX003 (ip), vehicle: Klucel (hydroxypropylcellulose) (HPC) 95 % of control | [4] 103 % of control

CC(=O)OC1C=COC(C)C1OC(C)=O (configuration not stated)
inactive: [17] 105 % of control | [11] 97 % of control | [5] 109 % of control | [6] 102 % of control | [12] 100 % of control | [7] 93 % of control | [8] 91 % of control | [13] 105 % of control | [9] 102 % of control | [10] 96 % of control

COc1ccc(/C=N\NC(=O)c2ccc(Cl)c(Cl)c2)cc1OC
inactive: dose: 50.0 mg/kg/injection, schedule: Q01DX009 (ip), vehicle: saline with Tween-80 117 % of control | [15] 93 % of control | [16] 90 % of control

C=CCSc1ccnc(N)n1
inactive: dose: 50.0 mg/kg/injection, schedule: Q01DX001 (ip), vehicle: Klucel (hydroxypropylcellulose) (HPC) 103 % of control | dose: 100.0 mg/kg/injection, schedule: Q01DX001 (ip), vehicle: Klucel (hydroxypropylcellulose) (HPC) 101 % of control

CCOC(=O)N1CCN(P(=O)(c2ccccc2)N2CCN(C(=O)OCC)CC2)CC1
inactive: [14] 93 % of control | dose: 200.0 mg/kg/injection, schedule: Q01DX009 (ip), vehicle: Klucel (hydroxypropylcellulose) (HPC) 93 % of control | dose: 400.0 mg/kg/injection, schedule: Q01DX009 (ip), vehicle: Klucel (hydroxypropylcellulose) (HPC) 96 % of control

O=c1[nH]cnc2c1ncn2C1OCC(O)C(O)C1O (configuration not stated)
inactive: [17] 105 % of control | [11] 101 % of control and 105 % of control | [12] 119 % of control and 109 % of control | [13] 103 % of control

O=C(O)CCCNC(=O)C(F)(F)F
inactive: dose: 100.0 mg/kg/injection, schedule: Q01DX001 (ip), vehicle: saline with Tween-80 95 % of control and 98 % of control | dose: 100.0 mg/kg/injection, schedule: Q04DX002 (ip), vehicle: saline with Tween-80 101 % of control and 103 % of control | [2] 100 % of control | dose: 200.0 mg/kg/injection, schedule: Q01DX001 (ip), vehicle: saline with Tween-80 95 % of control and 91 % of control | dose: 200.0 mg/kg/injection, schedule: Q04DX002 (ip), vehicle: saline with Tween-80 95 % of control and 92 % of control | [3] 95 % of control and 96 % of control | dose: 400.0 mg/kg/injection, schedule: Q01DX001 (ip), vehicle: saline with Tween-80 96 % of control and 92 % of control | [1] 100 % of control and 108 % of control | [4] 93 % of control and 100 % of control

COC(=O)CC1OCC=C2CN3CCC45C6=CC(=O)C(=O)C([N+](=O)[O-])=C6NC4C1C2CC35 (configuration not stated)
inactive: dose: 5.0 mg/kg/injection, schedule: Q01DX001 (ip), vehicle: saline 97 % of control | dose: 10.0 mg/kg/injection, schedule: Q01DX001 (ip), vehicle: saline 97 % of control

COC(=N)c1ccc2c(c1)OCO2
inactive: [6] 94 % of control | [8] 94 % of control | [10] 100 % of control

O=C(CCCCl)N1CCCCC1
inactive: dose: 100.0 mg/kg/injection, schedule: Q04DX002 (ip), vehicle: saline 94 % of control | dose: 200.0 mg/kg/injection, schedule: Q04DX002 (ip), vehicle: saline 98 % of control | dose: 400.0 mg/kg/injection, schedule: Q04DX002 (ip), vehicle: saline 96 % of control

O=[N+]([O-])/C=C/c1c(O)c(Cl)cc(Cl)c1Cl
inactive: dose: 12.5 mg/kg/injection, schedule: Q04DX002 (ip), vehicle: Klucel (hydroxypropylcellulose) (HPC) 92 % of control | dose: 25.0 mg/kg/injection, schedule: Q04DX002 (ip), vehicle: Klucel (hydroxypropylcellulose) (HPC) 92 % of control | dose: 50.0 mg/kg/injection, schedule: Q04DX002 (ip), vehicle: Klucel (hydroxypropylcellulose) (HPC) 95 % of control

COC(=O)c1ccc(NCC(=N)N)cc1
inactive: [11] 95 % of control | [12] 107 % of control

CC(C)C1(Br)C(=O)NC(=O)NC1=O
inactive: dose: 6.25 mg/kg/injection, schedule: Q01DX009 (ip), vehicle: Klucel (hydroxypropylcellulose) (HPC) 103 % of control | dose: 12.5 mg/kg/injection, schedule: Q01DX009 (ip), vehicle: Klucel (hydroxypropylcellulose) (HPC) 108 % of control
